Measured values published in patent US4192867A, “2-Deoxyfortimicin A, 4-N-alkyl and 4-N-acyl-2-deoxyfortimicin B derivatives” (Abbott Laboratories, priority 1977, dated 1980).
Counter-ions that a name gives are not always drawn. Like-named read-outs stand apart in the source and are kept apart here.

Experiments:
[1] = system: Proteus mirabilis Fin. #9; test: In vitro antibiotic activity, two-fold dilution test (Mueller-Hinton agar); assay type: cell-based; conditions: for MIC: read-out: Minimum inhibitory concentration (MIC)
Procedure: (§1) The in vitro antibiotic activities are determined by a two-fold dilution test using Mueller-Hinton agar, 10 ml per Petri plate. The inoculum of approximately 1×10^5 of the indicated test organism is delivered by the Steer's replicator. The test is incubated at 37° C. for 24 hours. Fortimicin A tetrahydrochloride and fortimicin A disulfate are used as the control antibiotics. The minimum inhibitory concentrations (MIC), listed in Table I, are expressed in mcg/ml.

Sal. typhimurium Ed. #9 = test: as above; assay type: cell-based; conditions: for MIC: Salmonella enterica, read-out: Minimum inhibitory concentration (MIC)
Procedure: as §1

[2] = system: Pseudo. aeruginosa BMH #10; test: as above; assay type: cell-based; conditions: for MIC: Pseudomonas aeruginosa, read-out: Minimum inhibitory concentration (MIC)
Procedure: as §1

Providencia 1577 = test: as above; assay type: cell-based; conditions: for MIC: read-out: Minimum inhibitory concentration (MIC)
Procedure: as §1

Strep. faecalis 10541 = test: as above; assay type: cell-based; conditions: for MIC: read-out: Minimum inhibitory concentration (MIC)
Procedure: as §1

[3] = system: Pseudo. aeruginosa KY 8516; test: as above; assay type: cell-based; conditions: for MIC: Pseudomonas aeruginosa
Procedure: as §1

[4] = system: Pseudo. aeruginosa KY 8512; test: as above; assay type: cell-based; conditions: for MIC: Pseudomonas aeruginosa
Procedure: as §1

E. coli 76-2 = test: as above; assay type: cell-based
Procedure: as §1

Serratis marcescens 4003 = test: as above; assay type: cell-based
Procedure: as §1

Staph. aureus Smith = test: as above; assay type: cell-based; conditions: for MIC: Staphylococcus aureus, read-out: Minimum inhibitory concentration (MIC)
Procedure: as §1

Kleb. pneumoniae 10031 = test: as above; assay type: cell-based
Procedure: as §1

Proteus vulgaris JJ = test: as above; assay type: cell-based; conditions: for MIC: read-out: Minimum inhibitory concentration (MIC)
Procedure: as §1

[5] = system: Enterobacter aerogenes 13048; test: as above; assay type: cell-based; conditions: for MIC: read-out: Minimum inhibitory concentration (MIC)
Procedure: as §1

Proteus rettigeri U6333 = test: as above; assay type: cell-based
Procedure: as §1

Kleb. pneumoniae KY 4262 = test: as above; assay type: cell-based; conditions: for MIC: Klebsiella pneumoniae
Procedure: as §1

E. coli Juhl = test: as above; assay type: cell-based; conditions: for MIC: Escherichia coli, read-out: Minimum inhibitory concentration (MIC)
Procedure: as §1

Shigella sonnei 9290 = test: as above; assay type: cell-based; conditions: 37° C.; for Minimum inhibitory concentration (MIC): 24 hours
Procedure: as §1

E. coli BL 3676 (Res) = test: as above; assay type: cell-based; conditions: for MIC: Escherichia coli, read-out: Minimum inhibitory concentration (MIC)
Procedure: as §1

Psuedo. aeruginosa 27853 = test: as above; assay type: cell-based
Procedure: as §1

Psuedo. aeruginosa 209 = test: as above; assay type: cell-based; conditions: for MIC: read-out: Minimum inhibitory concentration (MIC)
Procedure: as §1

[6] = system: Klebsiella pneumoniae (4508); test: Acute mouse protection test; assay type: in vivo, Klebsiella pneumoniae; female, swiss albino mice; conditions: ip, 168 h, read-out: Effective Dose50 (ED50)
Procedure: (§2) The acute mouse protection test is conducted on 10 mice with each of 5 levels of dug. Mouse mortality is used to calculate a ED50 value, i.e., dose of drug required to protect 50% of the test animals.
(§3) The acute mouse protection test is conducted on female, swiss albino mice, 18-20 grams in weight. The mice are injected intraperitoneally with an 18 hour culture of the indicated test organism diluted sufficiently to provide the desired LD50 value. To check potency of the infection a titration of the indicated test organism is carried out in control animals. The treatment group of animals is dosed with the test fortimicin at one and five hours post-infection and observed for seven days. The ED50 values are calculated using the mortality data collected.

[7] = system: Proteus mirabilis (Fin 9); test: Acute mouse protection test; assay type: in vivo, Proteus mirabilis; female, swiss albino mice; conditions: ip, 168 h, read-out: Effective Dose50 (ED50)
Procedure: as §2, §3

Escherichia coli (Juhl) = test: Acute mouse protection test; assay type: in vivo, Escherichia coli; female, swiss albino mice; conditions: ip, 168 h, read-out: Effective Dose50 (ED50)
Procedure: as §2, §3

[8] = Proteus mirabilis Fin. #9, Mueller-Hinton agar, 37° C., 24 hours
[9] = Sal. typhimurium Ed. #9, Mueller-Hinton agar, 37° C., 24 hours
[10] = Pseudo. aeruginosa BMH #10, Mueller-Hinton agar, 37° C., 24 hours
[11] = Providencia 1577, Mueller-Hinton agar, 37° C., 24 hours
[12] = Staph. aureus Smith, Mueller-Hinton agar, 37° C., 24 hours
[13] = Proteus vulgaris JJ, Mueller-Hinton agar, 37° C., 24 hours
[14] = E. coli Juhl, Mueller-Hinton agar, 37° C., 24 hours
[15] = E. coli BL 3676 (Res), Mueller-Hinton agar, 37° C., 24 hours
[16] = Psuedo. aeruginosa 209, Mueller-Hinton agar, 37° C., 24 hours

COC1C(O)C(N)C(OC2OC(C(C)N)CCC2N)C(O)C1N(C)C(=O)CN (stereo not drawn) [Fortimicin A disulfate, fortimicin A disulfate]
MIC ([1]; Proteus mirabilis, 24 h): 6.2 µg/mL | MIC (Sal. typhimurium Ed. #9; TYPHIMURIUM, 24 h): 1.56 µg/mL | MIC ([2]; 24 h): 0.78 µg/mL | MIC (Providencia 1577; Providencia, 1577, 24 h): 3.1 µg/mL | MIC (Strep. faecalis 10541; Enterococcus faecalis, 10541, 24 h): 50 µg/mL | MIC ([3]; KY8516, 24 h, read-out: Minimum inhibitory concentration (MIC), Pseudo. aeruginosa KY 8516, 37° C.): 50 µg/mL | MIC ([4]; KY8512, 24 h, read-out: Minimum inhibitory concentration (MIC), Pseudo. aeruginosa KY 8512, 37° C.): 12.5 µg/mL | MIC (E. coli 76-2; Escherichia coli, 762, 24 h, read-out: Minimum inhibitory concentration (MIC), E. coli 76-2, 37° C.): 6.2 µg/mL | MIC (Serratis marcescens 4003; 24 h, read-out: Minimum inhibitory concentration (MIC), Serratis marcescens 4003, 37° C.): 1.56 µg/mL | MIC (Staph. aureus Smith; 24 h): 0.78 µg/mL | MIC (Kleb. pneumoniae 10031; Klebsiella pneumoniae, 10031, 24 h, read-out: Minimum inhibitory concentration (MIC), Kleb. pneumoniae 10031, 37° C.): 3.1 µg/mL | MIC (Proteus vulgaris JJ; Proteus vulgaris, 24 h): 6.2 µg/mL | MIC ([5]; Klebsiella aerogenes, 13048, 24 h): 3.1 µg/mL | MIC (Proteus rettigeri U6333; 24 h, read-out: Minimum inhibitory concentration (MIC), Proteus rettigeri U6333, 37° C.): 12.5 µg/mL | MIC (Kleb. pneumoniae KY 4262; KY4262, 24 h, read-out: Minimum inhibitory concentration (MIC), Kleb. pneumoniae KY 4262, 37° C.): 6.2 µg/mL | MIC (E. coli Juhl; 24 h): 6.2 µg/mL | Minimum inhibitory concentration (MIC) (Shigella sonnei 9290): 6.2 µg/mL | MIC (E. coli BL 3676 (Res); 24 h): 25 µg/mL | MIC (Psuedo. aeruginosa 27853; 24 h, read-out: Minimum inhibitory concentration (MIC), Psuedo. aeruginosa 27853, 37° C.): 12.5 µg/mL | MIC (Psuedo. aeruginosa 209; 24 h): > 100 µg/mL | ED50 ([6]; Klebsiella pneumoniae): 2.5 mg/kg | ED50 ([7]; Proteus mirabilis): 7.5 mg/kg | ED50 (Escherichia coli (Juhl); Escherichia coli): 4.6 mg/kg

COC1C(O)C(N)C(OC2OC(C(C)N)CCC2N)C(O)C1N(C)C(=O)CN (stereo not drawn) [Fortimicin A tetrahydrochloride]
Minimum inhibitory concentration (MIC) [1, 8]: 6.2 µg/mL | Minimum inhibitory concentration (MIC) (Sal. typhimurium Ed. #9; [9]): 1.56 µg/mL | Minimum inhibitory concentration (MIC) [2, 10]: 0.78 µg/mL | Minimum inhibitory concentration (MIC) (Providencia 1577; [11]): 3.1 µg/mL | Minimum inhibitory concentration (MIC) (Strep. faecalis 10541; Strep. faecalis 10541, Mueller-Hinton agar, 37° C., 24 hours): 50 µg/mL | Minimum inhibitory concentration (MIC) ([3]; Pseudo. aeruginosa KY 8516, 37° C., 24 hours): 100 µg/mL | Minimum inhibitory concentration (MIC) ([4]; Pseudo. aeruginosa KY 8512, 37° C., 24 hours): 25 µg/mL | Minimum inhibitory concentration (MIC) (E. coli 76-2; E. coli 76-2, 37° C., 24 hours): 3.1 µg/mL | Minimum inhibitory concentration (MIC) (Serratis marcescens 4003; Serratis marcescens 4003, 37° C., 24 hours): 3.1 µg/mL | Minimum inhibitory concentration (MIC) (Staph. aureus Smith; [12]): 0.78 µg/mL | Minimum inhibitory concentration (MIC) (Kleb. pneumoniae 10031; Kleb. pneumoniae 10031, 37° C., 24 hours): 1.56 µg/mL | Minimum inhibitory concentration (MIC) (Proteus vulgaris JJ; [13]): 6.2 µg/mL | Minimum inhibitory concentration (MIC) ([5]; Enterobacter aerogenes 13048, Mueller-Hinton agar, 37° C., 24 hours): 3.1 µg/mL | Minimum inhibitory concentration (MIC) (Proteus rettigeri U6333; Proteus rettigeri U6333, 37° C., 24 hours): 25 µg/mL | Minimum inhibitory concentration (MIC) (Kleb. pneumoniae KY 4262; Kleb. pneumoniae KY 4262, 37° C., 24 hours): 3.1 µg/mL | Minimum inhibitory concentration (MIC) (E. coli Juhl; [14]): 6.2 µg/mL | Minimum inhibitory concentration (MIC) (Shigella sonnei 9290): 12.5 µg/mL | Minimum inhibitory concentration (MIC) (E. coli BL 3676 (Res); [15]): 25 µg/mL | Minimum inhibitory concentration (MIC) (Psuedo. aeruginosa 27853; Psuedo. aeruginosa 27853, 37° C., 24 hours): 25 µg/mL | Minimum inhibitory concentration (MIC) (Psuedo. aeruginosa 209; [16]): > 100 µg/mL

COC1CC(N)C(OC2OC(C(C)N)CCC2N)C(O)C1N(C)C(=O)CN (stereo not drawn) [2-deoxyfortimicin A tetrahydrochloride, 2-Deoxyfortimicin A Tetrahydrochloride]
MIC [1, 8]: 6.2 µg/mL | MIC (Sal. typhimurium Ed. #9; [9]): 1.56 µg/mL | MIC [2, 10]: 0.78 µg/mL | MIC (Providencia 1577; [11]): 3.1 µg/mL | MIC (Strep. faecalis 10541; Enterococcus faecalis, Strep. faecalis 10541, Mueller-Hinton agar, 37° C., 24 hours): 50 µg/mL | MIC ([3]; KY8516, Pseudo. aeruginosa KY 8516, 37° C., 24 hours, read-out: Minimum inhibitory concentration (MIC)): 50 µg/mL | MIC ([4]; KY8512, Pseudo. aeruginosa KY 8512, 37° C., 24 hours, read-out: Minimum inhibitory concentration (MIC)): 12.5 µg/mL | MIC (E. coli 76-2; Escherichia coli, 762, E. coli 76-2, 37° C., 24 hours, read-out: Minimum inhibitory concentration (MIC)): 3.1 µg/mL | MIC (Serratis marcescens 4003; Serratis marcescens 4003, 37° C., 24 hours, read-out: Minimum inhibitory concentration (MIC)): 3.1 µg/mL | MIC (Staph. aureus Smith; [12]): 0.78 µg/mL | MIC (Kleb. pneumoniae 10031; Klebsiella pneumoniae, Kleb. pneumoniae 10031, 37° C., 24 hours, read-out: Minimum inhibitory concentration (MIC)): 1.56 µg/mL | MIC (Proteus vulgaris JJ; [13]): 3.1 µg/mL | MIC ([5]; Klebsiella aerogenes, Enterobacter aerogenes 13048, Mueller-Hinton agar, 37° C., 24 hours): 3.1 µg/mL | MIC (Proteus rettigeri U6333; Proteus rettigeri U6333, 37° C., 24 hours, read-out: Minimum inhibitory concentration (MIC)): 25 µg/mL | MIC (Kleb. pneumoniae KY 4262; KY4262, Kleb. pneumoniae KY 4262, 37° C., 24 hours, read-out: Minimum inhibitory concentration (MIC)): 6.2 µg/mL | MIC (E. coli Juhl; [14]): 6.2 µg/mL | MIC (Shigella sonnei 9290; Shigella sonnei, 9290, 24 h, read-out: Minimum inhibitory concentration (MIC)): 6.2 µg/mL | MIC (E. coli BL 3676 (Res); [15]): 25 µg/mL | MIC (Psuedo. aeruginosa 27853; Psuedo. aeruginosa 27853, 37° C., 24 hours, read-out: Minimum inhibitory concentration (MIC)): 12.5 µg/mL | MIC (Psuedo. aeruginosa 209; [16]): > 100 µg/mL | ED50 ([6]; Klebsiella pneumoniae (4508) infected intraperitoneally, dosed one and five hours post-infection, observed seven days): 1.5 mg/kg | ED50 ([7]; Proteus mirabilis (Fin 9) infected intraperitoneally, dosed one and five hours post-infection, observed seven days): 4.7 mg/kg | ED50 (Escherichia coli (Juhl); Escherichia coli (Juhl) infected intraperitoneally, dosed one and five hours post-infection, observed seven days): 4.7 mg/kg
